Test results reported in patent publication US9067966B2, “Lupeol-type triterpene derivatives as antivirals” (priority 2009, dated 2015).
Values joined by “and” are separate entries in the source; they are usually repeats but may differ in a detail not shown here. Equal values may be shown once.

Assays:
HIV-1 strain NL4-3 [1] = assay: Anti-HIV-1 luciferase indicator assay in MT2 cells, NL4-3; format: cell-based; details: viral strain NL4-3
Procedure: (§1) Compound was dissolved in DMSO to make 30 mM stock. Then the 30 mM stock is further diluted to 4 mM using DMSO. The 4 mM stock was used as the top concentration to carry out an 11-point, 3-fold dilution scheme using DMSO in a 96-well plate to make the compound dose plate. Compounds in the dose plate were transferred to a new 96-well plate (working plate) containing PBS with 0.05% pluronic acid. From this working plate, the compound solution was transferred to the 384-well assay plates.
(§2) Control compounds used in compound control wells were prepared and added to assay plates individually.
(§3) MT2 cells were mixed with HIV-1 strain NL4-3 (or IIIB, or CNHN24) and the cell/virus mixture was added to the aforementioned antivirus assay plates. After incubation in a 37° C., 5% CO2 incubator, the supernatant from the assay plate was transferred to a new 384-well plate containing the indicator cells with a fire fly luciferase gene under HIV-1 LTR control. The expression level of luciferase was related to HIV-1 infectivity and was measured by Bright-Glo kit (Promega).
(§4) Therapeutic index (TI) was determined by taking ratio of CC50/IC50

HIV-1 strain IIIB [2] = assay: Anti-HIV-1 luciferase indicator assay in MT2 cells, IIIB; format: cell-based; details: viral strain II B; for IC50: read-out: IC50
Procedure: as §1, §2, §3, §4

HIV-1 strain CNHN24 [3] = assay: Anti-HIV-1 luciferase indicator assay in MT2 cells, CNHN24; format: cell-based; details: viral strain CNHN24; for IC50: read-out: IC50
Procedure: as §1, §2, §3, §4

in vitro [4] = format: cell-based; details: human, CC50
Procedure: as §1
(§5) For cytotoxicity assay the same amount of MT2 cells as in antivirus assay but without HIV-1 virus were added to the cytotoxicity plates. The cytotoxicity was measured by Cell Titer-Glo cell viability assay (Promega).

in vitro [5] = format: cell-based; details: human
Procedure: as §1, with “stock was” for “stock is”, “working plate” for “working plate,”
For the cytotoxicity assay, the same amount of PBMC cells as in the antivirus assay but without the HIV-1 virus, was added to the cytotoxicity plates. The cytotoxicity was measured by a CellTiter-Glo cell viability assay (Promega).

HIV-1 strain NL4-3 [6] = assay: Anti-HIV-1 luciferase indicator assay in PBMC cells, NL4-3; format: cell-based; details: Human immunodeficiency virus 1, NL43, viral strain NL4-3
Procedure: as §1, with “stock was” for “stock is”, “working plate” for “working plate,”
(§6) Control compounds for cpd control wells were prepared and added to assay plates individually.
(§7) PBMC cells were isolated from human whole blood using Histopaque-1077 (Sigma, #10771) and frozen down and kept in liquid nitrogen tank. Two days before the assay PBMC was recovered and cultured in medium containing PHA-P (Sigma, #L1668). On the day of assay PBMC cells were pelleted down and resuspended in medium containing IL-2 (Sigma, #I7908), then the cells were mixed with HIV-1 strain NL4-3, MOI=0.01 (or IIIB, or CNHN24) and the cell/virus mixture was added to the aforementioned antivirus assay plates. […] The expression level of luciferase was related to HIV-1 infectivity and was measured by Bright-Glo kit (Promega).

HIV-1 strain CNHN24 [7] = assay: Anti-HIV-1 luciferase indicator assay in PBMC cells, CNHN24; format: cell-based; details: Human immunodeficiency virus 1, viral strain CNHN24
Procedure: as §1, with “stock was” for “stock is”, “working plate” for “working plate,”
as §6, §7

HIV-1 strain IIIB [8] = assay: Anti-HIV-1 luciferase indicator assay in PBMC cells, IIIB; format: cell-based; details: Human immunodeficiency virus 1, IIIB, viral strain II B
Procedure: as §1, with “stock was” for “stock is”, “working plate” for “working plate,”
as §6, §7

MT2 cells = assay: in vitro; format: cell-based; details: human
Procedure: as §1, §5

[9] = Human immunodeficiency virus 1, NL43, MT2, MT2 cells, read-out: IC50
[10] = Human immunodeficiency virus 1, IIIB, MT2, MT2 cells
[11] = Human immunodeficiency virus 1, MT2, MT2 cells

SMILES | IC50 (HIV-1 strain NL4-3 [1]; [9]) [nM] | TI / Safety Index (CC50/IC50) (HIV-1 strain NL4-3 [1]; MT2 cells) | IC50 (HIV-1 strain IIIB [2]; [10]) [nM] | TI / Safety Index (CC50/IC50) (HIV-1 strain IIIB [2]; MT2 cells) | IC50 (HIV-1 strain CNHN24 [3]; [11]) [nM] | TI / Safety Index (CC50/IC50) (HIV-1 strain CNHN24 [3]; MT2 cells) | CC50 (in vitro [4]) [nM] | melting point [°C] | CC50 (in vitro [5]) [nM] | IC50 (HIV-1 strain NL4-3 [6]) [nM] | IC50 (HIV-1 strain CNHN24 [7]) [nM] | IC50 (HIV-1 strain IIIB [8]) [nM] | IC50 (HIV-1 strain NL4-3 [1]; Human immunodeficiency virus 1, NL43, MT2, MT2 cells) [nM] | IC50 (HIV-1 strain NL4-3 [1]; MT2 cells, read-out: IC50) [nM] | IC50 (HIV-1 strain IIIB [2]; MT2 cells) [nM] | IC50 (HIV-1 strain CNHN24 [3]; MT2 cells) [nM] | CC50 (MT2 cells) [nM]
C=C(C)[C@@H]1CC[C@]2(C(=O)O)CC[C@]3(C)[C@H](CC[C@@H]4[C@@]5(C)CC[C@H](OC(=O)[C@H]6C[C@@H](C(=O)O)C6(C)C)C(C)(C)[C@@H]5CC[C@]43C)[C@@H]12 [Example 19, (1R,3aS,5aR,5bR,7aR,9S,11aR,11bR,13aR,13bR)-9-((1S,3R)-3-carboxy-2,2-dimethylcyclobutanecarbonyloxy)-5a,5b,8,8,11a-pentamethyl-1-(prop-1-en-2-yl)icosahydro-1H-cyclopenta[a]chrysene-3a-carboxylic acid] | 72 | 277 | 21 | 952 | 26 | 769 | 20000 | 308 to 310 |  |  |  |  |  |  |  |  | 
C=C(C)[C@@H]1CC[C@]2(C(=O)N[C@@H]3C[C@H](C(=O)N4CCCC4)C3(C)C)CC[C@]3(C)[C@H](CC[C@@H]4[C@@]5(C)CC[C@H](OC(=O)CC(C)(C)C(=O)O)C(C)(C)[C@@H]5CC[C@]43C)[C@@H]12 [Example 45] | 17 | 1177 | 25 | 800 | 22 | 800 | 20000 |  | > 20000 | 17 | 22 | 25 |  |  |  |  | 
C=C(C)[C@@H]1CC[C@]2(C(=O)N[C@@H]3C[C@H](C(=O)N4CCCCC4)C3(C)C)CC[C@]3(C)[C@H](CC[C@@H]4[C@@]5(C)CC[C@H](OC(=O)CC(C)(C)C(=O)O)C(C)(C)[C@@H]5CC[C@]43C)[C@@H]12 [Example 48, 4-((1R,3aS,5aR,5bR,7aR,9S,11aR,11bR,13aR,13bR)-3a-((1R,3S)-2,2-dimethyl-3-(piperidine-1-carbonyl)cyclobutylcarbamoyl)-5a,5b,8,8,11a-pentamethyl-1-(prop-1-en-2-yl)icosahydro-1H-cyclopenta[a]chrysen-9-yloxy)-2,2-dimethyl-4-oxobutanoic acid] |  | 2072 and 1176 | 18 | 1061 and 800 | 11 |  | > 20000 |  |  |  |  |  | 9 | 17 | 25 | 21 | 20000
